In patent US20180280302A1, “SOLID DISPERSIONS OF COMPOUNDS USING POLYVINYL ALCOHOL AS A CARRIER POLYMER” (MERCK PATENT GMBH, priority 2015, published 2018) one finds pKa and final concentration data, which are given here for three molecules.

For data set [1] the following is noted: cited from earlier work.
The nature of data set [2]: Dissolution of IBU compositions in SGFsp pH 1.2 (USP apparatus II, fiber-optic UV). In kind it is physicochemical. As to conditions: at 2 hours.
Method: All dissolution tests were conducted in a Vankel VK-7000 (Varian, Inc.) USP apparatus II (paddle) dissolution tester. The dissolution medium was maintained at 37° C. with a recirculating heater and a paddle speed of 75 RPM was constant throughout the test. The theoretical equivalent of 200 mg of IBU (1.0 g of KSD product) was added to each vessel containing 1 L of the dissolution medium (n=3). […] The dissolution medium recipe (SGFsp) consisted of 2.0 g NaCl and 80 ml of 0.1 N HCl in a total of 1 L of purified water (pH=1.2). The dissolution medium was degassed prior to testing by the heat/sonication method.
The concentration of IBU in solution during the 120 minute dissolution test (shown in Table 10) was measured once per minute using a Pion Spectra in-situ fiber-optic UV-diss system (Pion, Inc., Billerica, Mass.) with a 1 mm path length probe tip. Concentrations were determined by integrating the area under the UV absorption curve in a wavelength range of 216 to 222 nm with a baseline correction at 450 nm. Linearity was established over a range of 1.4 to 200 μg/ml with a correlation coefficient of 0.9992. A diluents consisting of 7:3 (V/V) SGFsp:Acetonitrile (HPLC grade, no UV absorption beyond 190 nm) was used to generate the IBU standard curve.

On to `Cc1ccnc2c1NC(=O)c1cccnc1N2C1CC1` [Nevirapine], for which the pKa in data set [1] is reported as 2.8. Regarding `CC(C)Cc1ccc(C(C)C(=O)O)cc1` (stereo not drawn) [Pure Ibuprofen, Ibuprofen], the final concentration in data set [2] was > 0.02 mg/mL. As for Acetriptan, the pKa in data set [1] was 4.9.
